Source: PubChem BioAssay AID2060892 (Molecular Pharmacology Branch, DTP, NCI, 2025)

System: HOP-62 complex spheroids with HUVEC/MSC, viability
Experiment: Anticancer human tumor HOP-62 cell line growth inhibition [RAS];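 further: spheroids exposed to agents for seven days before readout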;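 on viability, T/C: 100% = DMSO vehicle control viability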
Details: for IC50: curve of first compound; for viability, T/C: stronger effect = lower value; active means viability on the fitted dose curve at most 10% of control; inactive means the rest
Method in brief: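 Agents were tested in combination matrices in half-log decrements from a top concentration at or near clinical Cmax (10 microM if undetermined). Targets were multi-cell spheroids of tumour lines plus HUVEC and MSC stromal cells.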

[1] = second compound 0.00316 µM, first compound 0.0316 µM
[2] = second compound 0.00316 µM, first compound 0.1 µM
[3] = second compound 0.00316 µM, first compound 0.316 µM
[4] = second compound 0.00316 µM, first compound 1 µM
[5] = second compound 0.01 µM, first compound 0.0316 µM
[6] = second compound 0.01 µM, first compound 0.1 µM
[7] = second compound 0.01 µM, first compound 0.316 µM
[8] = second compound 0.01 µM, first compound 1 µM
[9] = second compound 0.0316 µM, first compound 0.0316 µM
[10] = second compound 0.0316 µM, first compound 0.1 µM
[11] = second compound 0.0316 µM, first compound 0.316 µM
[12] = second compound 0.0316 µM, first compound 1 µM
[13] = second compound 0.1 µM, first compound 0.0316 µM
[14] = second compound 0.1 µM, first compound 0.1 µM
[15] = second compound 0.1 µM, first compound 0.316 µM
[16] = second compound 0.1 µM, first compound 1 µM
[17] = second compound 0.316 µM, first compound 0.0316 µM
[18] = second compound 0.316 µM, first compound 0.1 µM
[19] = second compound 0.316 µM, first compound 0.316 µM
[20] = second compound 0.316 µM, first compound 1 µM
[21] = second compound 1 µM, first compound 0.0316 µM
[22] = second compound 1 µM, first compound 0.1 µM
[23] = second compound 1 µM, first compound 0.316 µM
[24] = second compound 1 µM, first compound 1 µM

CC(Nc1ccc2c(c1)OCCn1cc(N3C(=O)OCC3C(F)F)nc1-2)C(N)=O (centres undefined) + C=CC(=O)N1CCN(c2nc(OCC3CCCN3C)nc3c(F)c(-c4nc(N)cc(C)c4C(F)(F)F)c(Cl)cc23)C(C)C1
63.4 nM: IC50 (second compound 0.01 µM)
34.6 nM: IC50 (second compound 0.1 µM)
inactive: viability, T/C [1] 57.6% | viability, T/C [2] 53.6% | viability, T/C [3] 44.2% | viability, T/C [4] 35.5% | viability, T/C (second compound 0.00316 µM, first compound 3.16 µM) 30.9% | viability, T/C (second compound 0.00316 µM, first compound 10 µM) 19.6% | viability, T/C [5] 56.5% | viability, T/C [6] 44.6% | viability, T/C [7] 37.8% | viability, T/C [8] 32.7% | viability, T/C (second compound 0.01 µM, first compound 3.16 µM) 27.7% | viability, T/C (second compound 0.01 µM, first compound 10 µM) 18.9% | viability, T/C [9] 47.5% | viability, T/C [10] 40.9% | viability, T/C [11] 36.1% | viability, T/C [12] 30.2% | viability, T/C (second compound 0.0316 µM, first compound 3.16 µM) 24.5% | viability, T/C (second compound 0.0316 µM, first compound 10 µM) 16.5% | viability, T/C [13] 52% | viability, T/C [14] 42% | viability, T/C [15] 39.2% | viability, T/C [16] 32.5% | viability, T/C (second compound 0.1 µM, first compound 3.16 µM) 24% | viability, T/C (second compound 0.1 µM, first compound 10 µM) 15.7% | viability, T/C [17] 47.4% | viability, T/C [18] 37.4% | viability, T/C [19] 32.9% | viability, T/C [20] 30.6% | viability, T/C (second compound 0.316 µM, first compound 3.16 µM) 20.5% | viability, T/C (second compound 0.316 µM, first compound 10 µM) 16.8% | viability, T/C [21] 43.6% | viability, T/C [22] 40.8% | viability, T/C [23] 32.2% | viability, T/C [24] 29.6% | viability, T/C (second compound 1 µM, first compound 3.16 µM) 24.3% | viability, T/C (second compound 1 µM, first compound 10 µM) 13%
140 nM: IC50 (second compound 0.00316 µM)
< 31.6 nM: IC50 (second compound 0.0316 µM) | IC50 (second compound 0.316 µM) | IC50 (second compound 1 µM)

O=C(c1ccc(F)c(F)c1Nc1ccc(I)cc1F)N1CC(O)([C@@H]2CCCCN2)C1 + C=CC(=O)N1CCN(c2nc(OCC3CCCN3C)nc3c(F)c(-c4nc(N)cc(C)c4C(F)(F)F)c(Cl)cc23)C(C)C1
38.3 nM: IC50 (second compound 0.01 µM)
17.6 nM: IC50 (second compound 1 µM)
inactive: viability, T/C (second compound 0.00316 µM, first compound 0.00316 µM) 77.1% | viability, T/C (second compound 0.00316 µM, first compound 0.01 µM) 77.8% | viability, T/C [1] 55.2% | viability, T/C [2] 36.5% | viability, T/C [3] 20% | viability, T/C [4] 19.2% | viability, T/C (second compound 0.01 µM, first compound 0.00316 µM) 68.2% | viability, T/C (second compound 0.01 µM, first compound 0.01 µM) 65.5% | viability, T/C [5] 52.2% | viability, T/C [6] 35.1% | viability, T/C [7] 18.8% | viability, T/C [8] 15% | viability, T/C (second compound 0.0316 µM, first compound 0.00316 µM) 68.1% | viability, T/C (second compound 0.0316 µM, first compound 0.01 µM) 60.1% | viability, T/C [9] 42.2% | viability, T/C [10] 30.6% | viability, T/C [11] 15.1% | viability, T/C [12] 13.3% | viability, T/C (second compound 0.1 µM, first compound 0.00316 µM) 64.8% | viability, T/C (second compound 0.1 µM, first compound 0.01 µM) 54.5% | viability, T/C [13] 49.3% | viability, T/C [14] 27.8% | viability, T/C [15] 15.7% | viability, T/C [16] 10.7% | viability, T/C (second compound 0.316 µM, first compound 0.00316 µM) 57% | viability, T/C (second compound 0.316 µM, first compound 0.01 µM) 57.2% | viability, T/C [17] 38.7% | viability, T/C [18] 28% | viability, T/C [19] 16.6% | viability, T/C [20] 10.5% | viability, T/C (second compound 1 µM, first compound 0.00316 µM) 63.6% | viability, T/C (second compound 1 µM, first compound 0.01 µM) 59.4% | viability, T/C [21] 40.6% | viability, T/C [22] 24.3% | viability, T/C [23] 13.1%
22.7 nM: IC50 (second compound 0.1 µM)
46.5 nM: IC50 (second compound 0.00316 µM)
14 nM: IC50 (second compound 0.316 µM)
active: viability, T/C [24] 9.01%
20 nM: IC50 (second compound 0.0316 µM)
